Data set [1] has as its system methicillin resistant Staphylococcus pseudintermedius (MRSP) strains. The procedure: (§1) Forty isolates of S. pseudintermedius (30 MSSP and 10 MRSP) identified at the Indiana Animal Disease Diagnostic laboratory from specimens collected from dogs admitted to the small animal teaching hospital at Purdue University were included in the study (Tables 2 and 3). […] Vitek identification of S. pseudintermedius was confirmed by a positive coagulase test. Antimicrobial susceptibility was determined by broth microdilution using the SensiTitre (Trek).
(§2) The broth microdilution technique was used to determine the minimum inhibitory concentrations (MIC) of peptides and antibiotics in MHB in accordance with the Clinical and Laboratory Standards Institute (CLSI) guidelines. Peptides were dissolved in sterile distilled water containing 0.02% acetic acid. […] MIC was defined as the lowest concentration of peptide which inhibited the visible growth of bacteria. MIC was done in triplicates and the highest value was reported.

For data set [2], the system named is methicillin sensitive Staphylococcus pseudintermedius (MSSP) strains. On the procedure: as §1, §2
Data set [3] deals with S. pseudintermedius strains. In kind it is cell-based, Staphylococcus pseudintermedius. As to conditions: 24 h. The procedure:
The broth microdilution technique was used to determine the minimum inhibitory concentrations (MIC) of peptides and antibiotics in MHB in accordance with the Clinical and Laboratory Standards Institute (CLSI) guidelines. Peptides were dissolved in sterile distilled water containing 0.02% acetic acid. MIC assays were carried out with an initial bacterial inoculum of 5×10^5 colony forming unit (CFU/ml). Peptides and antibiotics were added to Polystyrene 96 well plates (CytoOne, CC7672-7596) at desired concentrations and plates were incubated for 24 hr at 37°C. MIC was defined as the lowest concentration of peptide which inhibited the visible growth of bacteria. MIC was done in triplicates and the highest value was reported.
(§3) Untreated cells were used as a negative control.

For data set [4], the system named is macrophage-like cell line (J774A.1). Nature of the data set: Cytotoxicity, MTS assay, J774A.1. In kind it is cell-based. As to conditions: 24 h.
Protocol: Peptides were assayed at different concentrations against macrophage-like cell line (J774A.1) and human keratinocyte (HaCat) to determine the potential toxic effect in vitro. […] Untreated cells were used as a negative control. […] After incubation, the cells were washed three times with PBS and the media in each well were replaced with 100 µL of DMEM media and 20 µL of assay reagent, MTS 3-(4,5-dimethylthiazol-2-yl)-5-(3-carboxymethoxyphenyl)-2-(4-sulfophenyl)-2H-tetrazolium) (Promega, Madison, WI, USA). The cells were incubated further for 4 h at 37°C. Corrected absorbance readings (actual absorbance readings for each treatment subtracted from background absorbance) were taken using a kinetic ELISA microplate reader (Molecular Devices, Sunnyvale, CA, USA). Cell viability was expressed as percentage of absorbance in comparison to negative control, untreated cells.
Data set [5] deals with human keratinocyte (HaCat). Nature of the data set: Cytotoxicity, MTS assay, HaCat. Format: cell-based. As to conditions: 24 h.
From the text: as §3

Data set [6] relates to mammalian or microbial proteases. Particulars: effect of the D-amino acids substitution; cited from earlier work. An excerpt:
WR-12 is a broad-spectrum AMP and consists exclusively of arginine and tryptophan, arranged to form idealized amphipathic helices. […] Additionally, the D-amino acids ...

These results are taken from publication PMC4281220, “Antibacterial Activity of Novel Cationic Peptides against Clinical Isolates of Multi-Drug Resistant Staphylococcus pseudintermedius from Infected Dogs” (PLoS ONE, 2014).

Values after ≈ are worked out from the molar mass of the structure shown. Non-standard residues stand in square brackets, D forms with d. Residues, ends and D or L forms follow the SMILES beside them.

On to `CC[C@@H](C)[C@@H](N)C(=O)N[C@H](CCCNC(=N)N)C(=O)N[C@@H](C(=O)N[C@H](CCCCN)C(=O)N[C@@H](C(=O)N[C@H](CCCNC(=N)N)C(=O)N[C@@H](C(=O)N[C@H](CCCCN)C(=O)O)[C@H](C)CC)[C@H](C)CC)[C@H](C)CC` [IK8 “D isoform”] (H-[dI][dR][dI][dK][dI][dR][dI][dK]-OH), for which, in data set [1], the MIC50 was 4 µM (≈ 4.16 µg/mL) and the MIC90 was determined as 4 µM (≈ 4.16 µg/mL). In data set [2], this compound displayed an MIC50 of 4 µM (≈ 4.16 µg/mL) and an MIC90 of 8 µM (≈ 8.32 µg/mL). Moreover, in data set [3], the “GM MIC S. pseudintermedius” value was found to be 5 µM. In addition, in data set [4], the IC50 was over 256 µM and the “TI (Therapeutic index) J774A.1” value is >51.2/>51.2. For the same compound, in data set [5], the IC50 is over 256 µM. The “proteolytic degradation by mammalian or microbial proteases” value in data set [6] is listed as “prevented proteolytic degradation”.
